Assay results reported in article PMC10041525, “New Dual Inhibitors of Bacterial Topoisomerases with Broad-Spectrum Antibacterial Activity and In Vivo Efficacy against Vancomycin-Intermediate Staphylococcus aureus” (Journal of Medicinal Chemistry, 2023).

Test system: 100 A. baumannii strains (50 MDR, 50 non-MDR)
Assay: MIC broth microdilution at IHMA Europe, panel of 100 strains
Type: cell-based

“piperacillin/tazobactam [Piperacillin Tazobactam]” gave an MIC (A. baumannii IHMA 1769393, Lithuania 2018, Non-MDR) of no more than 0.25 µg/mL, an MIC (A. baumannii IHMA 1769782, Israel 2018, MDR) greater than 128 µg/mL and an MIC (A. baumannii IHMA 1769910, Israel 2018, Non-MDR) of no more than 0.25 µg/mL. For the same substance, the MIC (A. baumannii IHMA 1790317, Czech Republic 2018, Non-MDR) was no more than 0.25 µg/mL, the MIC (A. baumannii IHMA 1790916, Romania 2018, Non-MDR) was no more than 0.25 µg/mL and the MIC (A. baumannii IHMA 1791877, Israel 2018, MDR) was greater than 128 µg/mL. For the same substance, the MIC (A. baumannii IHMA 1792961, Jordan 2018, MDR) was greater than 128 µg/mL, the MIC (A. baumannii IHMA 1795669, Tunisia 2018, Non-MDR) was no more than 0.25 µg/mL and the MIC (A. baumannii IHMA 1814276, Lebanon 2018, MDR) was greater than 128 µg/mL. The MIC (A. baumannii IHMA 1815198, Kuwait 2018, MDR) was greater than 128 µg/mL, the MIC (A. baumannii IHMA 1815856, Israel 2018, MDR) was greater than 128 µg/mL and the MIC (A. baumannii IHMA 1821468, South Africa 2018, Non-MDR) was no more than 0.25 µg/mL. It also gave an MIC (A. baumannii IHMA 1829500, Georgia 2018, Non-MDR) of no more than 0.25 µg/mL, an MIC (A. baumannii IHMA 1830924, United Kingdom 2018, Non-MDR) of 16 µg/mL and an MIC (A. baumannii IHMA 1849819, Kuwait 2018, MDR) greater than 128 µg/mL. It also gave an MIC (A. baumannii IHMA 1849829, Kuwait 2018, Non-MDR) of no more than 0.25 µg/mL, an MIC (A. baumannii IHMA 1857118, Slovenia 2018, Non-MDR) of no more than 0.25 µg/mL and an MIC (A. baumannii IHMA 1863631, France 2018, Non-MDR) of no more than 0.25 µg/mL. For the same substance, the MIC (A. baumannii IHMA 1870054, United States 2018, Non-MDR) was no more than 0.25 µg/mL, the MIC (A. baumannii IHMA 1884428, Italy 2018, Non-MDR) was no more than 0.25 µg/mL and the MIC (A. baumannii IHMA 1884990, Germany 2018, Non-MDR) was no more than 0.25 µg/mL. For the same substance, the MIC (A. baumannii IHMA 1900538, Turkey 2018, Non-MDR) was no more than 0.25 µg/mL, the MIC (A. baumannii IHMA 1913773, Kenya 2018, Non-MDR) was no more than 0.25 µg/mL and the MIC (A. baumannii IHMA 1926285, Qatar 2018, Non-MDR) was no more than 0.25 µg/mL. For the same substance, the MIC (A. baumannii IHMA 1926288, Qatar 2018, MDR) was greater than 128 µg/mL, the MIC (A. baumannii IHMA 1957343, Portugal 2019, Non-MDR) was 8 µg/mL and the MIC (A. baumannii IHMA 1963732, Turkey 2019, MDR) was greater than 128 µg/mL. For the same substance, the MIC (A. baumannii IHMA 1967860, Spain 2019, Non-MDR) was no more than 0.25 µg/mL, the MIC (A. baumannii IHMA 1971673, Latvia 2019, MDR) was greater than 128 µg/mL and the MIC (A. baumannii IHMA 1975075, Israel 2019, Non-MDR) was 8 µg/mL. For the same substance, the MIC (A. baumannii IHMA 1977077, Kuwait 2019, Non-MDR) was 16 µg/mL, the MIC (A. baumannii IHMA 1983151, Greece 2019, MDR) was greater than 128 µg/mL and the MIC (A. baumannii IHMA 1984665, Lithuania 2019, MDR) was greater than 128 µg/mL. It also gave an MIC (A. baumannii IHMA 1986678, Turkey 2019, Non-MDR) of no more than 0.25 µg/mL, an MIC (A. baumannii IHMA 1986738, Turkey 2019, MDR) greater than 128 µg/mL and an MIC (A. baumannii IHMA 1987162, Croatia 2019, MDR) greater than 128 µg/mL. For the same substance, the MIC (A. baumannii IHMA 1993615, Turkey 2019, MDR) was greater than 128 µg/mL, the MIC (A. baumannii IHMA 1994284, Italy 2019, MDR) was greater than 128 µg/mL and the MIC (A. baumannii IHMA 1995161, Czech Republic 2019, Non-MDR) was no more than 0.25 µg/mL. The MIC (A. baumannii IHMA 1997936, Morocco 2019, Non-MDR) was 4 µg/mL, the MIC (A. baumannii IHMA 1999178, Belgium 2019, Non-MDR) was 4 µg/mL and the MIC (A. baumannii IHMA 2003279, Turkey 2019, MDR) was greater than 128 µg/mL. For the same substance, the MIC (A. baumannii IHMA 2014367, Jordan 2019, Non-MDR) was 4 µg/mL, the MIC (A. baumannii IHMA 2014931, South Africa 2019, Non-MDR) was 0.5 µg/mL and the MIC (A. baumannii IHMA 2019315, Romania 2019, Non-MDR) was no more than 0.25 µg/mL. The MIC (A. baumannii IHMA 2020360, Croatia 2019, MDR) was greater than 128 µg/mL, the MIC (A. baumannii IHMA 2031511, Greece 2019, Non-MDR) was no more than 0.25 µg/mL and the MIC (A. baumannii IHMA 2031524, Greece 2019, MDR) was greater than 128 µg/mL. It also gave an MIC (A. baumannii IHMA 2034657, Tunisia 2019, Non-MDR) of no more than 0.25 µg/mL, an MIC (A. baumannii IHMA 2035089, Serbia 2019, MDR) greater than 128 µg/mL and an MIC (A. baumannii IHMA 2035134, Serbia 2019, Non-MDR) of 4 µg/mL. It also gave an MIC (A. baumannii IHMA 2038976, Hungary 2019, MDR) greater than 128 µg/mL, an MIC (A. baumannii IHMA 2051503, Serbia 2019, MDR) greater than 128 µg/mL and an MIC (A. baumannii IHMA 2058329, Slovenia 2019, Non-MDR) of no more than 0.25 µg/mL. For the same substance, the MIC (A. baumannii IHMA 2065587, France 2019, Non-MDR) was no more than 0.25 µg/mL, the MIC (A. baumannii IHMA 2099294, United Kingdom 2019, Non-MDR) was 4 µg/mL and the MIC (A. baumannii IHMA 2129256, Qatar 2019, Non-MDR) was no more than 0.25 µg/mL. It also gave an MIC (A. baumannii IHMA 2154584, Israel 2020, MDR) greater than 128 µg/mL, an MIC (A. baumannii IHMA 2155340, Kenya 2020, MDR) greater than 128 µg/mL and an MIC (A. baumannii IHMA 2156634, Turkey 2020, MDR) greater than 128 µg/mL. It also gave an MIC (A. baumannii IHMA 2156709, Turkey 2020, MDR) greater than 128 µg/mL, an MIC (A. baumannii IHMA 2157614, Australia 2020, Non-MDR) of no more than 0.25 µg/mL and an MIC (A. baumannii IHMA 2177232, Lithuania 2020, MDR) greater than 128 µg/mL. It also gave an MIC (A. baumannii IHMA 2177489, Lithuania 2020, MDR) greater than 128 µg/mL, an MIC (A. baumannii IHMA 2178574, Ukraine 2020, Non-MDR) of 2 µg/mL and an MIC (A. baumannii IHMA 2180134, Malaysia 2020, Non-MDR) of 2 µg/mL. For the same substance, the MIC (A. baumannii IHMA 2180142, Malaysia 2020, MDR) was greater than 128 µg/mL, the MIC (A. baumannii IHMA 2181370, Morocco 2020, MDR) was greater than 128 µg/mL and the MIC (A. baumannii IHMA 2183729, Argentina 2020, MDR) was greater than 128 µg/mL. It also gave an MIC (A. baumannii IHMA 2183849, Argentina 2020, Non-MDR) of no more than 0.25 µg/mL, an MIC (A. baumannii IHMA 2184382, Japan 2020, Non-MDR) of no more than 0.25 µg/mL and an MIC (A. baumannii IHMA 2193375, Venezuela 2020, MDR) greater than 128 µg/mL. It also gave an MIC (A. baumannii IHMA 2193485, Venezuela 2020, Non-MDR) of no more than 0.25 µg/mL.
